# Article PMC8366290, “Efficacy of a Novel Bi-Steric mTORC1 Inhibitor in Models of B-Cell Acute Lymphoblastic Leukemia” (Frontiers in Oncology, 2021)
# pEC50: −log10 of the molar value.
# Target: T1, mTOR (mTORC1) (Homo sapiens, UniProt P42345)
# T1 construct: with raptor (mTORC1 complex)
# Test: MSD electrochemiluminescent assay of p4E-BP1 T37/T46 in SUP-B15 cells, with immunoblot
# Type: cell-based
smiles,measurement,value
CO[C@H]1C[C@@H]2CC[C@@H](C)[C@@](O)(O2)C(=O)C(=O)N2CCCC[C@H]2C(=O)O[C@H]([C@H](C)C[C@@H]2CC[C@@H](OCCCCc3cn(CCOCCOCCOCCOCCOCCOCCOCCOCCC(=O)NCCCCn4nc(-c5cc6cc(O)ccc6[nH]5)c5c(N)ncnc54)nn3)[C@H](OC)C2)CC(=O)[C@H](C)/C=C(\C)[C@@H](O)[C@@H](OC)C(=O)[C@H](C)C[C@H](C)/C=C/C=C/C=C/1C [RMC-4627],pEC50,8.70
